Experimental data taken from patent publication US11091478B2 (Fochon Pharmaceuticals, Ltd., priority 2017, dated 2021).
Read-outs that look alike come from different tables or passages of the source.

Experiments:
DOHH2 cells = assay: Cell proliferation assay (MTS), DOHH2 cells, 120 h; assay type: cell-based
Summary of the method: (§1)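 Cells in RPMI-1640 with 10% FBS were seeded at 5000/well, left overnight at 37° C., 5% CO2, then exposed to compound at 10000 down to 1.5 nM (nine concentrations) for 72 h (RS4;11) or 120 h (DOHH2). Viability was read by MTS, 2 h, absorbance at 490/650 nm; IC50 calculated.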

RS4;11 cells = assay: Cell proliferation assay (MTS), RS4;11 cells, 72 h; assay type: cell-based
Summary of the method: as §1

Row | SMILES | IC50 (DOHH2 cells; Homo sapiens, DOHH-2, 120 h) | IC50 (RS4;11 cells; Homo sapiens, RS4-11, 72 h) | also measured
1 | COC(=O)C[C@@H]1Cc2cc(S(=O)(=O)NC(=O)c3ccc(N4CCN(CC5=C(c6ccc(Cl)cc6)CC(C)(C)CC5)CC4)cc3Oc3cnc4[nH]ccc4c3)cc([N+](=O)[O-])c2N1 [Example 1-22, methyl (S)-2-(5-(N-(2-((1H-pyrrolo[2,3-b]pyridin-5-yl)oxy)-4-(4-((4′-chloro-5,5-dimethyl-3,4,5,6-tetrahydro-[1,1′-biphenyl]-2-yl)methyl)piperazin-1-yl)benzoyl)sulfamoyl)-7-nitro-indolin-2-yl)acetate] | 175 nM | 47 nM | –
2 | COC1CCC([C@@H]2COc3cc(S(=O)(=O)NC(=O)c4ccc(N5CCN(CC6=C(c7ccc(Cl)cc7)CC(C)(C)CC6)CC5)cc4Oc4cnc5[nH]ccc5c4)cc([N+](=O)[O-])c3N2)CC1 (stereo partly drawn) [Example 2-248A, (R)-2-((1H-pyrrolo[2,3-b]pyridin-5-yl)oxy)-4-(4-((4′-chloro-5,5-dimethyl-3,4,5,6-tetra-hydro-[1,1′-biphenyl]-2-yl)methyl)piperazin-1-yl)-N-((3-(4-methoxycyclohexyl)-5-nitro-3,4-dihydro-2H-benzo[b][1,4]oxazin-7-yl)sulfonyl)benzamide] | 27 nM | 35 nM | –
3 | CN(C)C[C@@H]1COc2cc(S(=O)(=O)NC(=O)c3ccc(N4CCN(CC5=C(c6ccc(Cl)cc6)CC(C)(C)CC5)CC4)cc3Oc3cnc4[nH]ccc4c3)cc([N+](=O)[O-])c2N1 [Example 2-7, (R)-2-((1H-pyrrolo[2,3-b]pyridin-5-yl)oxy)-4-(4-((4′-chloro-5,5-dimethyl-3,4,5,6-tetra-hydro-[1,1′-biphenyl]-2-yl)methyl)piperazin-1-yl)-N-((3-((dimethylamino)methyl)-5-nitro-3,4-dihydro-2H-benzo[b][1,4]oxazin-7-yl)sulfonyl)benzamide] | 95 nM | 72 nM | –
4 | CC1(C)CCC(CN2CCN(c3ccc(C(=O)NS(=O)(=O)c4cc5c(c([N+](=O)[O-])c4)N[C@H](C4CCC(C)(O)CC4)CO5)c(Oc4cnc5[nH]ccc5c4)c3)CC2)=C(c2ccc(Cl)cc2)C1 (single isomer, unassigned) [Example 2-3B] | – | – | IC50 (DOHH2 cells; Homo sapiens, DOHH-2): 33 nM; IC50 (RS4;11 cells; Homo sapiens): 8 nM
5 | CC1(C)CCC(CN2CCN(c3ccc(C(=O)NS(=O)(=O)c4cc5c(c([N+](=O)[O-])c4)NC(CC4CCOCC4)CO5)c(Oc4cnc5[nH]ccc5c4)c3)CC2)=C(c2ccc(Cl)cc2)C1 (stereo not drawn) [Example 2-180, 2-((1H-pyrrolo[2,3-b]pyridin-5-yl)oxy)-4-(4-((4′-chloro-5,5-dimethyl-3,4,5,6-tetrahydro-[1,1′-biphenyl]-2-yl)methyl)piperazin-1-yl)-N-((5-nitro-3-((tetrahydro-2H-pyran-4-yl)methyl)-3,4-dihydro-2H-benzo[b][1,4]oxazin-7-yl)sulfonyl)benzamide] | 15 nM | 8 nM | –
6 | CC1(C)CCC(CN2CCN(c3ccc(C(=O)NS(=O)(=O)c4cc5c(c([N+](=O)[O-])c4)N[C@@H](COC(=O)N4CCOCC4)CO5)c(Oc4cnc5[nH]ccc5c4)c3)CC2)=C(c2ccc(Cl)cc2)C1 [Example 2-117, (R)-(7-(N-(2-((1H-pyrrolo[2,3-b]pyridin-5-yl)oxy)-4-(4-((4′-chloro-5,5-dimethyl-3,4,5,6-tetrahydro-[1,1′-biphenyl]-2-yl)methyl)piperazin-1-yl)benzoyl)sulfamoyl)-5-nitro-3,4-dihydro-2H-benzo[b][1,4]oxazin-3-yl)methyl morpholine-4-carboxylate] | 41 nM | 44 nM | –
7 | C[C@H]1COCCN1C[C@@H]1COc2cc(S(=O)(=O)NC(=O)c3ccc(N4CCN(CC5=C(c6ccc(Cl)cc6)CC(C)(C)CC5)CC4)cc3Oc3cnc4[nH]ccc4c3)cc([N+](=O)[O-])c2N1 [Example 2-80, 2-((1H-pyrrolo[2,3-b]pyridin-5-yl)oxy)-4-(4-((4′-chloro-5,5-dimethyl-3,4,5,6-tetrahydro-[1,1′-biphenyl]-2-yl)methyl)piperazin-1-yl)-N-(((R)-3-(((S)-3-methylmorpholino)meth-yl)-5-nitro-3,4-dihydro-2H-benzo[b][1,4]oxazin-7-yl)sulfonyl)benzamide] | 49 nM | 7 nM | –
8 | CC1(C)CCC(CN2CCN(c3ccc(C(=O)NS(=O)(=O)c4cc5c(c([N+](=O)[O-])c4)N[C@@H](CC4CCOCC4)CO5)c(Oc4cnc5[nH]ccc5c4)c3)CC2)=C(c2ccc(Cl)cc2)C1 [Example 2-182, (S)-2-((1H-pyrrolo[2,3-b]pyridin-5-yl)oxy)-4-(4-((4′-chloro-5,5-dimethyl-3,4,5,6-tetra-hydro-[1,1′-biphenyl]-2-yl)methyl)piperazin-1-yl)-N-((5-nitro-3-((tetrahydro-2H-pyran-4-yl)methyl)-3,4-dihydro-2H-benzo[b] [1,4]oxazin-7-yl)sulfonyl)benzamide] | 16 nM | 3 nM | –
9 | CN(C)C[C@H]1CSc2cc(S(=O)(=O)NC(=O)c3ccc(N4CCN(CC5=C(c6ccc(Cl)cc6)CC(C)(C)CC5)CC4)cc3Oc3cnc4[nH]ccc4c3)cc([N+](=O)[O-])c2N1 [Example 3-8, (S)-2-((1H-pyrrolo[2,3-b]pyridin-5-yl)oxy)-4-(4-((4′-chloro-5,5-dimethyl-3,4,5,6-tetra-hydro-[1,1′-biphenyl]-2-yl)methyl)piperazin-1-yl)-N-((3-((dimethylamino)methyl)-5-nitro-3,4-dihydro-2H-benzo[b][1,4]thiazin-7-yl)sulfonyl)benzamide] | 67 nM | 17 nM | –
10 | CC1(C)CCC(CN2CCN(c3ccc(C(=O)NS(=O)(=O)c4cc5c(c([N+](=O)[O-])c4)N[C@H](C4CC4)CO5)c(Oc4cnc5[nH]ccc5c4)c3)CC2)=C(c2ccc(Cl)cc2)C1 [Example 2-109, (R)-2-((1H-pyrrolo[2,3-b]pyridin-5-yl)oxy)-4-(4-((4′-chloro-5,5-dimethyl-3,4,5,6-tetra-hydro[1,1′-biphenyl]-2-yl)methyl)piperazin-1-yl)-N-((3-cyclopropyl-5-nitro-3,4-dihy-dro-2H-benzo[b][14,]oxazin-7-yl)sulfonyl) benzamide] | 56 nM | 11 nM | –
11 | CC1(C)CCC(CN2CCN(c3ccc(C(=O)NS(=O)(=O)c4cc5c(c([N+](=O)[O-])c4)N[C@@H](CNC(=O)C4CCOCC4)CO5)c(Oc4cnc5[nH]ccc5c4)c3)CC2)=C(c2ccc(Cl)cc2)C1 [Example 2-54, (S)-N-((7-(N-(2-((1H-pyrrolo[2,3-b]pyridin-5-yl)oxy)-4-(4-((4′-chloro-5,5-dimethyl-3,4,5,6-tetrahydro-[1,1′-biphenyl]-2-yl)methyl)piperazin-1-yl)benzoyl)sulfamoyl)-5-nitro-3,4-dihydro-2H-benzo[b][1,4]oxa-zin-3-yl)meth-yl)tetrahydro-2H-pyran-4-carboxamide] | 134 nM | 61 nM | –
12 | CC1(C)CCC(CN2CCN(c3ccc(C(=O)NS(=O)(=O)c4cc5c(c([N+](=O)[O-])c4)N[C@H](CC4CCC(O)CC4)CO5)c(Oc4cnc5[nH]ccc5c4)c3)CC2)=C(c2ccc(Cl)cc2)C1 (single isomer, unassigned) [Example 2-239B] | – | – | IC50 (DOHH2 cells): 1 nM; IC50 (RS4;11 cells): 1 nM
13 | CC1(C)CCC(CN2CCN(c3ccc(C(=O)NS(=O)(=O)c4cc5c(c([N+](=O)[O-])c4)N[C@H](CCN4CCP(C)(=O)CC4)CO5)c(Oc4cnc5[nH]ccc5c4)c3)CC2)=C(c2ccc(Cl)cc2)C1 [Example 2-155, (R)-2-((1H-pyrrolo[2,3-b]pyridin-5-yl)oxy)-4-(4-((4′-chloro-5,5-dimethyl-3,4,5,6-tetra-hydro-[1,1′-biphenyl]-2-yl)methyl)piperazin-1-yl)-N-((3-(2-(4-methyl-4-oxido-1,4-aza-phosphinan-1-yl)ethyl)-5-nitro-3,4-dihydro-2H-benzo[b][1,4]oxazin-7-yl)sulfonyl) benzamide] | 459 nM | 66 nM | –
14 | CC1(C)CCC(CN2CCN(c3ccc(C(=O)NS(=O)(=O)c4cc5c(c([N+](=O)[O-])c4)N[C@H](C4CCC(C)(O)CC4)CO5)c(Oc4cnc5[nH]ccc5c4)c3)CC2)=C(c2ccc(Cl)cc2)C1 (single isomer, unassigned) [Example 2-3A] | 16 nM | 1 nM | –
15 | CC[C@H]1COc2cc(S(=O)(=O)NC(=O)c3ccc(N4CCN(CC5=C(c6ccc(Cl)cc6)CC(C)(C)CC5)CC4)cc3Oc3cnc4[nH]ccc4c3)cc([N+](=O)[O-])c2N1 [Example 2-112] | 15 nM | 11 nM | –
16 | CN1CCC([C@@H]2COc3cc(S(=O)(=O)NC(=O)c4ccc(N5CCN(CC6=C(c7ccc(Cl)cc7)CC(C)(C)CC6)CC5)cc4Oc4cnc5[nH]ccc5c4)cc([N+](=O)[O-])c3N2)CC1 [Example 2-227, (R)-2-((1H-pyrrolo[2,3-b]pyridin-5-yl)oxy)-4-(4-((4′-chloro-5,5-dimethyl-3,4,5,6-tetra-hydro-[1,1′-biphenyl]-2-yl)methyl)piperazin-1-yl)-N-((3-(1-methylpiperidin-4-yl)-5-ni-tro-3,4-dihydro-2H-benzo[b][1,4]oxazin-7-yl)sulfonyl)benzamide] | 6 nM | 1 nM | –
17 | CC(=O)N1CCC(C[C@@H]2COc3cc(S(=O)(=O)NC(=O)c4ccc(N5CCN(CC6=C(c7ccc(Cl)cc7)CC(C)(C)CC6)CC5)cc4Oc4cnc5[nH]ccc5c4)cc([N+](=O)[O-])c3N2)CC1 [Example 2-203, (R)-2-((1H-pyrrolo[2,3-b]pyridin-5-yl)oxy)-N-((3-((1-acetylpiperidin-4-yl)methyl)-5-nitro-3,4-dihydro-2H-benzo[b][1,4]oxazin-7-yl)sulfonyl)-4-(4-((4′-chloro-5,5-dimethyl-3,4,5,6-tetrahydro-[1,1′-biphenyl]-2-yl)meth-yl)piperazin-1-yl)benzamide] | 96 nM | 20 nM | –
18 | C[C@H]1CN(CC[C@@H]2COc3cc(S(=O)(=O)NC(=O)c4ccc(N5CCN(CC6=C(c7ccc(Cl)cc7)CC(C)(C)CC6)CC5)cc4Oc4cnc5[nH]ccc5c4)cc([N+](=O)[O-])c3N2)CCN1C1COC1 [Example 2-40] | 36 nM | 22 nM | –
